Assay results as given in patent publication US20240158446A1, “CYCLIC COMPOUND HAVING SELECTIVE INHIBITORY ACTION ON KRAS OVER HRAS AND NRAS” (CHUGAI SEIYAKU KABUSHIKI KAISHA, priority 2021, published 2024).
Like-named read-outs stand apart in the source and are kept apart here. Where a SMILES comes first, the peptide text is derived from it. Bridges are numbered along the chain shown (N, C = ends). [ ]: non-standard residue; d: D form. The star is where a group is joined. hPhe(3-Cl-4-CF3) = N[C@@H](CCc1ccc(C(F)(F)F)c(Cl)c1)C(=O)O; NPrPhe(4-CF3) = CCCN[C@@H](Cc1ccc(C(F)(F)F)cc1)C(=O)O; NMeGly(cPent) = CN[C@H](C(=O)O)C1CCCC1; NMeL = CN[C@@H](CC(C)C)C(=O)O; Morpholide = C1CN(*)CCO1; Ac5c = NC1(C(=O)O)CCCC1; Ac4c = NC1(C(=O)O)CCC1; NEtG = CCNCC(=O)O; Sar = CNCC(=O)O

Key:
[1] = target: GDP-bound KRAS wild-type protein (Homo sapiens, UniProt P01116); assay: Binding to KRAS by surface plasmon resonance (SPR), Single Cycle Kinetics; conditions: GDP-bound KRAS wild-type protein, read-out: KRAS KD
Sequence of GDP-bound KRAS wild-type protein (P01116 whole entry): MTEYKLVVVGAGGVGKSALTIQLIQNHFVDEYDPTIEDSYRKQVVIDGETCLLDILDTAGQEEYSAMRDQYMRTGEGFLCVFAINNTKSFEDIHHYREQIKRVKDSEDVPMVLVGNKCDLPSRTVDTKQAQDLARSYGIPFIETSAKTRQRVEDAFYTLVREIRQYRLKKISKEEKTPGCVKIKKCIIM

[2] = target: GDP-bound NRAS wild-type protein (Homo sapiens, UniProt P01111); assay: Binding to NRAS by surface plasmon resonance (SPR), Single Cycle Kinetics
Sequence of GDP-bound NRAS wild-type protein (P01111 whole entry): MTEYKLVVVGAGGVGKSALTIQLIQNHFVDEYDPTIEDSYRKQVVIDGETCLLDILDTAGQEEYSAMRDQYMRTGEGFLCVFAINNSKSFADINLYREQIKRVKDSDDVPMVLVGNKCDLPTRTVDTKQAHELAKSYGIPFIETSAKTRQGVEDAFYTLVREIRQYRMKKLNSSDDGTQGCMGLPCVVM

[3] = target: GDP-bound HRAS wild-type protein (Homo sapiens, UniProt P01112); assay: Binding to HRAS by surface plasmon resonance (SPR), Single Cycle Kinetics
Sequence of GDP-bound HRAS wild-type protein (P01112 whole entry): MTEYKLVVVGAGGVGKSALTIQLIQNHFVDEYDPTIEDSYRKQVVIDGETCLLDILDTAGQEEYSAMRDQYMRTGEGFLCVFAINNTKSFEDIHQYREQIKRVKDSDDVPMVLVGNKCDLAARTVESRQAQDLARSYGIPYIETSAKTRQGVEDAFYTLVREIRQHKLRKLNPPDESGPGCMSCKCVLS

[4] = SPR, GDP-bound NRAS wild-type protein vs GDP-bound KRAS wild-type protein
[5] = SPR, GDP-bound HRAS wild-type protein vs GDP-bound KRAS wild-type protein
[6] = SPR Single Cycle Kinetics, 1:1 binding model

| Structure (SMILES) | Kd ([1]; SPR, Single Cycle Kinetics) [nM] | NRAS/KRAS (ratio of KD value for NRAS to KD value for KRAS) [2, 4] | HRAS/KRAS (ratio of KD value for HRAS to KD value for KRAS) [3, 5] | Kd [1, 6] [nM] | NRAS/KRAS (ratio of KD value with respect to GDP-bound NRAS wild-type protein to KD value with respect to KRAS) ([2]; SPR KD ratio NRAS/KRAS, class symbols) | HRAS/KRAS (ratio of KD value with respect to GDP-bound HRAS wild-type protein to KD value with respect to KRAS) ([3]; SPR KD ratio HRAS/KRAS, class symbols) | NRAS/KRAS (ratio of KD value with respect to NRAS to KD value with respect to KRAS) [2, 4] | HRAS/KRAS (ratio of KD value with respect to HRAS to KD value with respect to KRAS) [3, 5] |
| --- | --- | --- | --- | --- | --- | --- | --- | --- |
| C#CC[C@H]1C(=O)N[C@@H]([C@@H](C)CC)C(=O)N(C)CC(=O)N(C)[C@H]2C/C=C\CCN(C2=O)[C@@H](Cc2ccc(C(F)(F)F)cc2)C(=O)N(C)CC(=O)N[C@@H](CCc2cc(F)c(C(F)(F)F)c(F)c2)C(=O)N2C[C@H](OCC)C[C@H]2C(=O)NC2(CC(C)(C)C2)C(=O)N(C)[C@@H](C2CCCC2)C(=O)N(C)[C@H](C(=O)N(C)CC)CC(=O)N1C [PP2073] | 0.078 | A (a compound having 10 or more and less than 20 is denoted as A) | A (a compound having 10 or more and less than 20 is denoted as A) |  |  |  |  |  |
| CCO[C@@H]1C[C@H]2C(=O)NC3(CC(C)(C)C3)C(=O)N(C)[C@@H](C(CC)CC)C(=O)N(C)[C@H](C(=O)N3CCCC3)CC(=O)N(C)[C@H]3CCC/C=C/c4ccc(cc4)C[C@@H](C(=O)N(C)CC(=O)N[C@@H](CCc4ccc(Cl)c(Cl)c4)C(=O)N2C1)N1CC/C=C\C[C@@H](C1=O)N(C)C(=O)CN(C)C(=O)[C@H]([C@@H](C)CC)NC3=O [PP2581] |  |  |  | 0.21 | AA (a compound having 20 or more is denoted as AA) | A (a compound having 10 or more and less than 20 is denoted as A) |  |  |
| CC[C@H](C)[C@@H]1NC(=O)[C@H](CC)N(C)C(=O)C[C@@H](C(=O)N(C)C)N(CC)C(=O)[C@H](C2CCCC2)N(C)C(=O)C2(CCC2)NC(=O)[C@@H]2CCN2C(=O)[C@H](CCc2cc(F)c(C(F)(F)F)c(F)c2)NC(=O)CN(C)C(=O)[C@H](Cc2ccc(C(F)(F)F)cc2)N2CCCC[C@@H](C2=O)N(C)C(=O)CN(C)C1=O [PP0660] |  |  |  | 0.29 |  |  | B (a compound having 3 or more and less than 10 is denoted as B) | B (a compound having 3 or more and less than 10 is denoted as B) |
| CCC[C@H]1C(=O)N[C@@H]([C@@H](C)CC)C(=O)N(C2CC2)CC(=O)N(C)[C@H]2C/C=C\CCN(C2=O)[C@@H](Cc2ccc(C)cc2)C(=O)N(C)CC(=O)N[C@@H](CCc2cc(F)c(C(F)(F)F)c(F)c2)C(=O)N2C[C@H](OCC)C[C@H]2C(=O)NC2(CC(C)(C)C2)C(=O)N(C)[C@@H](C2CCCC2)C(=O)N(C)[C@H](C(=O)N(C)C)CC(=O)N1C [PP2093, (2S,8S,12R,14S,20S,23S,27S,30S,36S,38Z)-20-cyclopentyl-32-cyclopropyl-8-[2-[3,5-difluoro-4-(trifluoromethyl)phenyl]ethyl]-12-ethoxy-N,N,3′,3′,4,19,22,26,35-nonamethyl-30-[(1S)-1-methylpropyl]-3,6,9,15,18,21,25,28,31,34,42-undecaoxo-27-propyl-2-(p-tolylmethyl)spiro[1,4,7,10,16,19,22,26,29,32,35-undecazatricyclo[34.5.1.0^10,14]dotetracont-38-ene-17,1′-cyclobutane]-23-carboxamide] | 0.33 | A (a compound having 10 or more and less than 20 is denoted as A) | A (a compound having 10 or more and less than 20 is denoted as A) |  |  |  |  |  |
| CCCN1C(=O)CN(C)C(=O)CNC(=O)[C@H]([C@@H](C)CC)NC(=O)[C@H](CC(C)C)N(C)C(=O)C[C@@H](C(=O)N(C)C)NC(=O)[C@H](C2CCCC2)N(C)C(=O)C2(CCC2)NC(=O)[C@@H]2CCCN2C(=O)[C@H](CCc2ccc(C(F)(F)F)c(Cl)c2)NC(=O)CN(C)C(=O)[C@@H]1Cc1ccc(C(F)(F)F)cc1 [PP0362] ([NMeL]IG[Sar][NPrPhe(4-CF3)][Sar][hPhe(3-Cl-4-CF3)]P[Ac4c][NMeGly(cPent)]D-NMe2; lactam N-11) |  | B (a compound having 3 or more and less than 10 is denoted as B) | B (a compound having 3 or more and less than 10 is denoted as B) | 1 |  |  |  |  |
| CCO[C@@H]1C[C@H]2C(=O)NC3(CCC3)C(=O)N(C)[C@@H](C3CCCC3)C(=O)N(C)[C@H](C(=O)N3CCOCC3)CC(=O)N(C)[C@@H](COC)C(=O)N[C@@H]([C@@H](C)CC)C(=O)NCC(=O)N(C)[C@H]3CCCCCN(C3=O)[C@@H](Cc3ccc(C(F)(F)F)cc3)C(=O)N(C)CC(=O)N[C@@H](CCc3cc(F)c(C(F)(F)F)c(F)c3)C(=O)N2C1 [PP0858] | 0.66 | B (a compound having 3 or more and less than 10 is denoted as B) | B (a compound having 3 or more and less than 10 is denoted as B) |  |  |  |  |  |
| CCCN1C(=O)CN(C)C(=O)CN(CC)C(=O)[C@H]([C@@H](C)CC)NC(=O)[C@H](CC(C)C)N(C)C(=O)C[C@@H](C(=O)N2CCOCC2)NC(=O)[C@H](C2CCCC2)N(C)C(=O)C2(CCCC2)NC(=O)[C@@H]2CCCN2C(=O)[C@H](CCc2ccc(C(F)(F)F)c(Cl)c2)NC(=O)CN(C)C(=O)[C@@H]1Cc1ccc(C(F)(F)F)cc1 [PP0331] ([NMeL]I[NEtG][Sar][NPrPhe(4-CF3)][Sar][hPhe(3-Cl-4-CF3)]P[Ac5c][NMeGly(cPent)]D-Morpholide; lactam N-11) |  | B (a compound having 3 or more and less than 10 is denoted as B) | B (a compound having 3 or more and less than 10 is denoted as B) | 2.8 |  |  |  |  |
